Activity calls are given as the source filed them. The rule behind the calls is not given here.
How the values were obtained:
[1] = system: NCI-H2228-Luc; assay: Antitumor activity against human NCI-H2228-Luc cells intrapleurally xenografted in NOD.CB17-Prkdcscid/J mouse assessed as median survival time at 3 mg/kg, po administered once daily for 7 weeks starting from 14 days post-cell inoculation measured up to 90 days (reference value: 39 day); format: functional; conditions: time 90 day
[2] = biological target: Leukocyte tyrosine kinase receptor (Homo sapiens, UniProt P29376)
Leukocyte tyrosine kinase receptor, sequence (P29376 whole entry): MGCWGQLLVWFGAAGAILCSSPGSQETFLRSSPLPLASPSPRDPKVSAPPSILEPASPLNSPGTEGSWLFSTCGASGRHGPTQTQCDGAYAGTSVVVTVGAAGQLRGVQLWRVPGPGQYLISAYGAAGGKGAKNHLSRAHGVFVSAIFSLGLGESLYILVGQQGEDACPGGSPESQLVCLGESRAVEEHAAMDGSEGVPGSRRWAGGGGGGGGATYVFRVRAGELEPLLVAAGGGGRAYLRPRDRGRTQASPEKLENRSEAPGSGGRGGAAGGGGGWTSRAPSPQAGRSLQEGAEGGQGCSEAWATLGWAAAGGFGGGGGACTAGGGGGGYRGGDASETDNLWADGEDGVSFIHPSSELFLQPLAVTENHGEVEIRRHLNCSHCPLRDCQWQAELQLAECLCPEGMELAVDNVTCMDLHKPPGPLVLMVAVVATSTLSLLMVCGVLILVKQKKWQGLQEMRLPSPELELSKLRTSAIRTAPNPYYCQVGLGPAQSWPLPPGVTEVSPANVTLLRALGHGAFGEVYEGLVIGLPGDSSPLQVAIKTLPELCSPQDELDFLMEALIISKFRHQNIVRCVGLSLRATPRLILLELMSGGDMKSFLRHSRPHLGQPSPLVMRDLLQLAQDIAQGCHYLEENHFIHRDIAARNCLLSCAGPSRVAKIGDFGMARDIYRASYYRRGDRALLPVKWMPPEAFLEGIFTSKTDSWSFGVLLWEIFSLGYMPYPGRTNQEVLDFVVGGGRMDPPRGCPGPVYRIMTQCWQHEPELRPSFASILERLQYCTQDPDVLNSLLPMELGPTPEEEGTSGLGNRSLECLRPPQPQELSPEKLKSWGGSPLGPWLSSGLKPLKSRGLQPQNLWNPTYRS

[3] = biological target: BDNF/NT-3 growth factors receptor (Homo sapiens, UniProt Q16620)
BDNF/NT-3 growth factors receptor, sequence (Q16620 whole entry): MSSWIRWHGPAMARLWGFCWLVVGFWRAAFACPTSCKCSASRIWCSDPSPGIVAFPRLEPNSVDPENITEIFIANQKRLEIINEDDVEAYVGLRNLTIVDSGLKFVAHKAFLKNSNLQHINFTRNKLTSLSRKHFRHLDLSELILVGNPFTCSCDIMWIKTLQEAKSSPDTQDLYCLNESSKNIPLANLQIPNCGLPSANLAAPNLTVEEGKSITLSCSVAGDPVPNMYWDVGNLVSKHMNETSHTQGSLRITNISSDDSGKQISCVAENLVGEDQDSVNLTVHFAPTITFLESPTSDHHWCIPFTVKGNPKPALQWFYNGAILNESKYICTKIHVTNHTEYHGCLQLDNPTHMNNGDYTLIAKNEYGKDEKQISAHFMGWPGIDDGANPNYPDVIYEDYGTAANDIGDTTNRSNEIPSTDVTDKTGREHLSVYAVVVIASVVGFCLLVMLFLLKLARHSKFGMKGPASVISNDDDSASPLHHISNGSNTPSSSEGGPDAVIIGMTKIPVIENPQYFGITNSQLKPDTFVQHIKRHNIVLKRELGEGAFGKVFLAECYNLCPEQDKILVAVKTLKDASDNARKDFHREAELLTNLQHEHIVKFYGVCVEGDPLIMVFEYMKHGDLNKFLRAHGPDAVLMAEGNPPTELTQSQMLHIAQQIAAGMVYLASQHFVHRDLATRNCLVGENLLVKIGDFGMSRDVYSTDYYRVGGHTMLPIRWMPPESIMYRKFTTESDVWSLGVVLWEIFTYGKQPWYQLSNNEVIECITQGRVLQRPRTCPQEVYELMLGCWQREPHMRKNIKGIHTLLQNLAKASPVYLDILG

[4] = biological target: EML4-ALK (Homo sapiens, UniProt Q9UM73); format: cell-based, BaF3
Description: Inhibition of EML4-ALK (unknown origin) transformed in mouse BaF3 cells by HTRF assay

[5] = system: NCI-H2228; assay: Antitumor activity against human NCI-H2228 cells xenografted in NOD.CB17-Prkdcscid/J mouse assessed as tumor regression at 30 mg/kg, po administered once daily for 2 weeks relative to control; format: functional
[6] = biological target: Proto-oncogene tyrosine-protein kinase ROS (Homo sapiens, UniProt P08922)
[7] = Ratio of Cmax in human NCI-H2228 cell xenografted NOD.CB17-Prkdcscid/J mouse tumor to plasma at 3 mg/kg/day for 5 days by HPLC-MS analysis; format: ADME, organism-based; conditions: tumor and plasma, route po, time 5 day
[8] = biological target: EML4-ALK (Homo sapiens, UniProt Q9UM73, L1196M); format: cell-based, BaF3
EML4-ALK (Homo sapiens, UniProt Q9UM73, L1196M), sequence (Q9UM73 19-1620 L1196M limits assumed): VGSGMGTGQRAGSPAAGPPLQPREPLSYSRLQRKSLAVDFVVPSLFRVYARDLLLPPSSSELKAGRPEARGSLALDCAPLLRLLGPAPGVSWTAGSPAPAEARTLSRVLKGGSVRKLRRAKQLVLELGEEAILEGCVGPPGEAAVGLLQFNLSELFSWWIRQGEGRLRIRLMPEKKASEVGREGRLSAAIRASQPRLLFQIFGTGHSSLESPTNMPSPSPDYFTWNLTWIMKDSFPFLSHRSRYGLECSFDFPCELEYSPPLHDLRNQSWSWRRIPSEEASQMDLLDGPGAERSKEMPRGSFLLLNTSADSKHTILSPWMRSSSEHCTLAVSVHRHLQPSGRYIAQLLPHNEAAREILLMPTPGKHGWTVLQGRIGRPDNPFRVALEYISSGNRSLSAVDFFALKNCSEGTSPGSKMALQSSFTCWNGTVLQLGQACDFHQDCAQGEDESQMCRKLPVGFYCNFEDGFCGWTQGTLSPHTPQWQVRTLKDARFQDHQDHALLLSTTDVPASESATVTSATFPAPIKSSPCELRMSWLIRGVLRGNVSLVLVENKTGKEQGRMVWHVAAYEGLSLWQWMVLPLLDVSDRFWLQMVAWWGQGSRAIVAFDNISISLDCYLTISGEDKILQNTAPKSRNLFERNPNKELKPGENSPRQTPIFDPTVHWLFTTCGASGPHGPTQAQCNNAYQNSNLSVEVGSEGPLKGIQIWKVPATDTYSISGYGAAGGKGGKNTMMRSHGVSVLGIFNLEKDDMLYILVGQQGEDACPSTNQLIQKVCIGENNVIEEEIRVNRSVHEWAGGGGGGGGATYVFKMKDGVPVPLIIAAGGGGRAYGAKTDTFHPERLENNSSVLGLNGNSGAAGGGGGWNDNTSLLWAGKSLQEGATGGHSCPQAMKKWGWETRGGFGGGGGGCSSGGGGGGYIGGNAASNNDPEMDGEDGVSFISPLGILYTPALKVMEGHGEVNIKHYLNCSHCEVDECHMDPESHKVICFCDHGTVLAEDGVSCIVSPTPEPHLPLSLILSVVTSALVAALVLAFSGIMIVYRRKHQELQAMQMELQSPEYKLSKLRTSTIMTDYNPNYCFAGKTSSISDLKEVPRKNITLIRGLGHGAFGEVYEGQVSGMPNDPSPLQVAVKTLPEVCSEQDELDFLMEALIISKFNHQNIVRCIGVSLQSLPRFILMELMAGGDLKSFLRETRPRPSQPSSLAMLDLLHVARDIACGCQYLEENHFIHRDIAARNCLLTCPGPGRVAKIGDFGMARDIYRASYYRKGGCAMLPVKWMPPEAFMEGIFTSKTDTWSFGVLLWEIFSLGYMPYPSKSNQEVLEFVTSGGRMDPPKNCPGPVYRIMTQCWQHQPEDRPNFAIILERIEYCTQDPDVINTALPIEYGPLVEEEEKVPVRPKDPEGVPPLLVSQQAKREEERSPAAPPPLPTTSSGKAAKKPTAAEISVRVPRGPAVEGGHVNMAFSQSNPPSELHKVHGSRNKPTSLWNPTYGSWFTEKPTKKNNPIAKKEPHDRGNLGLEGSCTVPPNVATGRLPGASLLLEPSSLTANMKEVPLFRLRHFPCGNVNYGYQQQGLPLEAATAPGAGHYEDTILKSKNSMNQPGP

[9] = system: NCI-H2228; assay: Antitumor activity against human NCI-H2228 cells xenografted in po dosed NOD.CB17-Prkdcscid/J mouse assessed as tumor growth inhibition administered once daily for 2 weeks; format: functional, organism-based; conditions: dose 1-30 mg/kg
[10] = system: NCI-H2228; assay: Antitumor activity against human NCI-H2228 cells xenografted in NOD.CB17-Prkdcscid/J mouse assessed as tumor regression at 1 mg/kg, po administered once daily for 2 weeks relative to control; format: functional
[11] = AUC (0 to 24 hrs) in human NCI-H2228 cell xenografted NOD.CB17-Prkdcscid/J mouse tumor at 1 mg/kg/day for 5 days by HPLC-MS analysis; format: ADME, organism-based, Neoplasm; conditions: in vivo, po, 120 h, time 5 day
[12] = AUC (0 to 24 hrs) in human NCI-H2228 cell xenografted NOD.CB17-Prkdcscid/J mouse plasma at 10 mg/kg/day for 5 days by HPLC-MS analysis; format: ADME, organism-based; conditions: route po, time 5 day
[13] = AUC (0 to 24 hrs) in human NCI-H2228 cell xenografted NOD.CB17-Prkdcscid/J mouse tumor at 3 mg/kg/day for 5 days by HPLC-MS analysis; format: ADME, organism-based, Neoplasm; conditions: in vivo, po, 120 h, time 5 day
[14] = system: NCI-H2228; assay: Potentiation of carboplatin-induced antitumor activity against human NCI-H2228 cells xenografted in NOD.CB17-Prkdcscid/J mouse assessed as reduction in tumor volume at 10 mg/kg, po administered once daily for 5 days; format: functional, organism-based; conditions: time 5.0 day
[15] = biological target: T1, ALK tyrosine kinase receptor (Homo sapiens, UniProt Q9UM73); assay: Inhibition of ALK in human NCI-H2228 cells assessed as reduction in ERK phosphorylation by measuring phosphorylated ERK level at 100 nmol/L measured after 4 hrs by Western blot analysis relative to control; format: cell-based; design: scale not given: the % may be the effect or the level left
Target sequence in this assay (Q9UM73 19-1620 limits assumed): as the sequence (Q9UM73 19-1620 L1196M limits assumed) above, with M1178L counted along it

[16] = biological target: Muscle, skeletal receptor tyrosine-protein kinase (Homo sapiens, UniProt O15146)
Muscle, skeletal receptor tyrosine-protein kinase, sequence (O15146 whole entry): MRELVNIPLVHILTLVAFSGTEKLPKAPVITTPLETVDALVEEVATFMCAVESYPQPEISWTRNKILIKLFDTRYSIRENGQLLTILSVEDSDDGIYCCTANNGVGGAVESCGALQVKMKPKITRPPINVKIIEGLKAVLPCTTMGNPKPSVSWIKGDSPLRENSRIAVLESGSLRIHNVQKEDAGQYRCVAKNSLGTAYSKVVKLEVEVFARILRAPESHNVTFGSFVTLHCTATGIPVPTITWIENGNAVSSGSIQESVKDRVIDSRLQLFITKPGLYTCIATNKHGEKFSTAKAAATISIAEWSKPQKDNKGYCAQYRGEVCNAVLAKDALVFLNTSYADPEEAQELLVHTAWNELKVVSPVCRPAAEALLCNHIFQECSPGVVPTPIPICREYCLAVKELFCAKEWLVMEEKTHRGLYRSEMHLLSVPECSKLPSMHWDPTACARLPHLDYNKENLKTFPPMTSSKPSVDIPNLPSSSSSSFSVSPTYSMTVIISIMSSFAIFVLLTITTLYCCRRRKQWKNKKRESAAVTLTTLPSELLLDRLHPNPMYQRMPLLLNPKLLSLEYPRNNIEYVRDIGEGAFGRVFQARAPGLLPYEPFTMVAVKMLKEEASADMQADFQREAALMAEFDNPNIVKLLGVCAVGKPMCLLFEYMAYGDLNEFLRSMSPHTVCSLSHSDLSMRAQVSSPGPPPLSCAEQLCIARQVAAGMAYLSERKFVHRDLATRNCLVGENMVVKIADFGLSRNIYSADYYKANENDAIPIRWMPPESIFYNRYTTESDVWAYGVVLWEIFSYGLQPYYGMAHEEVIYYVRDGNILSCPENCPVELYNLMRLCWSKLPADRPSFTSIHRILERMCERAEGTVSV

[17] = biological target: T1, ALK tyrosine kinase receptor
[18] = biological target: T1, ALK tyrosine kinase receptor; assay: Inhibition of ALK in human NCI-H2228 cells assessed as reduction in AKT phosphorylation by measuring phosphorylated AKT level at 100 nmol/L measured after 4 hrs by Western blot analysis relative to control; format: cell-based; design: scale not given: the % may be the effect or the level left
Target sequence in this assay (Q9UM73 19-1620 limits assumed): as the sequence (Q9UM73 19-1620 L1196M limits assumed) above, with M1178L counted along it

[19] = system: NCI-H2228-Luc; assay: Antitumor activity against human NCI-H2228-Luc cells intrapleurally xenografted in NOD.CB17-Prkdcscid/J mouse assessed as median survival time at 10 mg/kg, po administered once daily for 7 weeks starting from 14 days post-cell inoculation measured up to 90 days (reference value: 39 day); format: functional; conditions: time 90 day
[20] = biological target: Tyrosine-protein kinase Lck (Homo sapiens, UniProt P06239)
[21] = biological target: Tyrosine-protein kinase Yes (Homo sapiens, UniProt P07947)
Tyrosine-protein kinase Yes, sequence (P07947 whole entry): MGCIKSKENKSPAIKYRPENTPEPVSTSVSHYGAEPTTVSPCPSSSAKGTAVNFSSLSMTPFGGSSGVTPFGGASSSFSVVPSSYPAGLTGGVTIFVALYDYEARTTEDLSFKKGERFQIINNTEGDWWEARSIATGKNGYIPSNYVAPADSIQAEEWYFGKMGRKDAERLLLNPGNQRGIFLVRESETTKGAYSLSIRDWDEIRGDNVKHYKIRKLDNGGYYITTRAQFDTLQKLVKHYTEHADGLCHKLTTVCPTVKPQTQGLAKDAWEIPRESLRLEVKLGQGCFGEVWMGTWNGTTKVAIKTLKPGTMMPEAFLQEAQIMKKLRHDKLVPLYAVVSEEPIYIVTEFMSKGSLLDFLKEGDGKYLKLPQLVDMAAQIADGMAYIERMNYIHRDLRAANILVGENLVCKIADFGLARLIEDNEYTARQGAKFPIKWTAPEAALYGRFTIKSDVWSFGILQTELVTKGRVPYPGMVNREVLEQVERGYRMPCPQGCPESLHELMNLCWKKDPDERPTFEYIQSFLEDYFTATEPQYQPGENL

[22] = system: NCI-H2228-Luc; assay: Antitumor activity against human NCI-H2228-Luc cells intrahepatically xenografted in NOD.CB17-Prkdcscid/J mouse assessed as reduction in tumor burden by measuring bioluminescence emission at 30 mg/kg, po administered once daily for 3 weeks starting from 14 days post-cell inoculation and measured on day 14 by bioluminescent imaging analysis (reference value: 3.3 x 10^8 photon/sec); format: functional; conditions: time 14 day
[23] = in vivo; conditions: NOD.CB17-Prkdcscid/J, mouse, tumour, po, 3 mg/kg
[24] = AUC (0 to 24 hrs) in human NCI-H2228 cell xenografted NOD.CB17-Prkdcscid/J mouse plasma at 1 mg/kg/day for 5 days by HPLC-MS analysis; format: ADME, organism-based; conditions: route po, time 5 day
[25] = system: NCI-H2228; assay: Antitumor activity against human NCI-H2228 cells xenografted in NOD.CB17-Prkdcscid/J mouse assessed as tumor regression at 3 mg/kg, po administered once daily for 2 weeks relative to control; format: functional
[26] = biological target: Ephrin type-A receptor 2 (Homo sapiens, UniProt P29317)
[27] = system: NCI-H2228-Luc; conditions: dose 30 mg/kg; route po; time 90 day
[28] = Tmax in human NCI-H2228 cell xenografted NOD.CB17-Prkdcscid/J mouse plasma at 10 mg/kg/day for 5 days by HPLC-MS analysis; format: ADME, organism-based; conditions: route po, time 5 day
[29] = biological target: Hepatocyte growth factor receptor (Homo sapiens, UniProt P08581); assay: Inhibition of human N-terminal GST-fused MET cytoplasmic domain ([956 to 1390(end) residues) expressed in baculovirus expression system using Srctide as substrate measured after 1 hr by off-chip mobility shift assay relative to control
[30] = system: NCI-H2228; assay: Potentiation of pemetrexed-induced antitumor activity against human NCI-H2228 cells xenografted in NOD.CB17-Prkdcscid/J mouse assessed as reduction in tumor volume at 10 mg/kg, po administered once daily for 5 days; format: functional, organism-based; conditions: time 5.0 day
[31] = Toxicity in human NCI-H2228 cell xenografted NOD.CB17-Prkdcscid/J mouse assessed as change in body weight at 10 mg/kg, po administered once daily for 5 days in presence of paclitaxel; format: organism-based; conditions: in vivo, 120 h, time 5 day
[32] = system: NCI-H2228; assay: Potentiation of paclitaxel-induced antitumor activity against human NCI-H2228 cells xenografted in NOD.CB17-Prkdcscid/J mouse assessed as increase in tumor regression at 10 mg/kg, po administered once daily for 5 days; format: functional, organism-based; conditions: time 5.0 day
[33] = Tmax in human NCI-H2228 cell xenografted NOD.CB17-Prkdcscid/J mouse tumor at 1 mg/kg/day for 5 days by HPLC-MS analysis; format: ADME, organism-based, Neoplasm; conditions: route po, time 5 day
[34] = Toxicity in human NCI-H2228 cell xenografted NOD.CB17-Prkdcscid/J mouse assessed as change in body weight at 100 mg/kg, po administered twice daily for 14 days; format: organism-based; conditions: in vivo, 336 h, time 14 day

Question: Which results are given for `COc1cc(N2CCC(N3CCN(C)CC3)CC2)ccc1Nc1ncnc(Nc2ccccc2S(=O)(=O)C(C)C)n1` [ASP-3026]?
Answer: MST [1]: 56.5 days; IC50 [2]: 61 nM; IC50 [3]: > 1000 nM; IC50 [4]: 10 nM; Activity [5]: 78%; IC50 [6]: 8.9 nM; Kp at 120 h [7]: 16; IC50 [8]: 32 nM; TGI [9]: Dose-Dependent Effect; Activity [10]: 0%; AUC [11]: 13600 ng·h/g; AUC at 120 h [12]: 5990 ng·h/mL; AUC [13]: 34400 ng·h/g; Activity [14]: inactive; Activity [15]: 54%; IC50 [16]: > 100 nM; IC50 [17]: 3.5 nM; Activity [18]: 56%; MST [19]: 79 days; IC50 [20]: > 100 nM; IC50 [21]: 31.5 nM; Activity [22]: 4.2 10^6No_unit; Kp at 120 h [23]: 19; AUC at 120 h [24]: 630 ng·h/mL; Activity [25]: 4%; IC50 [26]: > 1000 nM; MST [27]: >90 days; Tmax [28]: 4 h; IC50 [29]: > 1000 nM; Activity [30]: Active; Activity [31]: Non-Toxic; Activity [32]: Active; Tmax [33]: 4 h; Activity [34]: Non-Toxic

— ChEMBL document CHEMBL5661983, “The selective anaplastic lymphoma receptor tyrosine kinase inhibitor ASP3026 induces tumor regression and prolongs survival in non-small cell lung cancer model mice” (Mol Cancer Ther, 2014)
